Measurements: US9708314B2, “Heterocyclic amide compound” (NISSAN CHEMICAL INDUSTRIES, LTD., priority 2013, dated 2017)

Tests used:
Assay in all cases: Test Example 3: herbicidal effect by application to foliage (Wagner pot, water depth 0.1-0.5 cm)
Format in all cases: in vivo
Settings in all cases: Nineteenth Table; application to foliage; application herbicide amount 320 g/ha
[1] = tested on: Cyperus difformis
In short: (§1)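 Greenhouse pot test, 25–30 °C, alluvial soil. Sown seedlings grown 14 days then sprayed on leaves and stems with emulsion diluted to target g/ha. Rating at 3 weeks, 0–5 scale (0 ≤5%, 5 ≥90%).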

[2] = tested on: Leptochloa chinensis
In short: as §1

[3] = tested on: Echinochloa crus-galli var. crus-galli
In short: as §1

Compound	E (herbicidal effect grade) [1]	D (herbicidal effect grade) [2]	H (herbicidal effect grade) [3]
Cc1nnc(NC(=O)c2ccc(C(F)(F)F)n3c(-c4cc5ccccc5n4C)nnc23)o1 [1-059]	3 (Herbicidal ratio of 40% or more and less than 70%)	3 (Herbicidal ratio of 40% or more and less than 70%)	0 (Herbicidal ratio of 5% or less (almost no effect))
COCCOC(=O)Cc1nnc2c(C(=O)Nc3nnc(C)o3)ccc(C(F)(F)F)n12 [1-060]	3 (Herbicidal ratio of 40% or more and less than 70%)	4 (Herbicidal ratio of 70% or more and less than 90%)	5 (Herbicidal ratio of 90% or more (almost completely withered))
CC(=O)OCc1nnc2c(C(=O)Nc3nnc(C)o3)ccc(C(F)(F)F)n12 [1-062]	4 (Herbicidal ratio of 70% or more and less than 90%)	4 (Herbicidal ratio of 70% or more and less than 90%)	5 (Herbicidal ratio of 90% or more (almost completely withered))
COCCSc1nnc2c(C(=O)Nc3nnc(C)o3)ccc(C(F)(F)F)n12 [1-063]	5 (Herbicidal ratio of 90% or more (almost completely withered))	5 (Herbicidal ratio of 90% or more (almost completely withered))	5 (Herbicidal ratio of 90% or more (almost completely withered))
C=CCSc1nnc2c(C(=O)Nc3nnc(C)o3)ccc(C(F)(F)F)n12 [1-064]	4 (Herbicidal ratio of 70% or more and less than 90%)	4 (Herbicidal ratio of 70% or more and less than 90%)	5 (Herbicidal ratio of 90% or more (almost completely withered))
CN(C)c1nnc2c(C(=O)Nc3nnco3)ccc(C(F)(F)F)n12 [1-103]	5 (Herbicidal ratio of 90% or more (almost completely withered))	5 (Herbicidal ratio of 90% or more (almost completely withered))	5 (Herbicidal ratio of 90% or more (almost completely withered))
Cc1nnc(NC(=O)c2ccc(C(F)(F)F)n3c(CC4CC4)nnc23)o1 [1-104]	4 (Herbicidal ratio of 70% or more and less than 90%)	5 (Herbicidal ratio of 90% or more (almost completely withered))	5 (Herbicidal ratio of 90% or more (almost completely withered))
Cc1nnc(NC(=O)c2ccc(C(F)(F)F)n3c(C4(C)CC4(Cl)Cl)nnc23)o1 (stereo not drawn) [1-105]	5 (Herbicidal ratio of 90% or more (almost completely withered))	5 (Herbicidal ratio of 90% or more (almost completely withered))	5 (Herbicidal ratio of 90% or more (almost completely withered))
CCSc1nnc2c(C(=O)Nc3nnco3)ccc(C(F)(F)F)n12 [1-106]	5 (Herbicidal ratio of 90% or more (almost completely withered))	5 (Herbicidal ratio of 90% or more (almost completely withered))	5 (Herbicidal ratio of 90% or more (almost completely withered))
COCCOCc1nnc2c(C(=O)Nc3nnco3)ccc(C(F)(F)F)n12 [1-107]	5 (Herbicidal ratio of 90% or more (almost completely withered))	5 (Herbicidal ratio of 90% or more (almost completely withered))	5 (Herbicidal ratio of 90% or more (almost completely withered))
CCCSc1nnc2c(C(=O)Nc3nnco3)ccc(C(F)(F)F)n12 [1-108]	5 (Herbicidal ratio of 90% or more (almost completely withered))	5 (Herbicidal ratio of 90% or more (almost completely withered))	5 (Herbicidal ratio of 90% or more (almost completely withered))
COCCNc1nnc2c(C(=O)Nc3nnc(C)o3)ccc(C(F)(F)F)n12 [1-109]	3 (Herbicidal ratio of 40% or more and less than 70%)	5 (Herbicidal ratio of 90% or more (almost completely withered))	5 (Herbicidal ratio of 90% or more (almost completely withered))
O=C(Nc1nnco1)c1ccc(C(F)(F)F)n2c(N3CCOCC3)nnc12 [1-110]	5 (Herbicidal ratio of 90% or more (almost completely withered))	5 (Herbicidal ratio of 90% or more (almost completely withered))	5 (Herbicidal ratio of 90% or more (almost completely withered))
CCOc1nnc2c(C(=O)Nc3nnco3)ccc(C(F)(F)F)n12 [1-112]	1 (Herbicidal ratio of 5% or more and less than 20%)	2 (Herbicidal ratio of 20% or more and less than 40%)	3 (Herbicidal ratio of 40% or more and less than 70%)
Cc1nnc(NC(=O)c2ccc(C(F)(F)F)n3c(SCc4ccccc4)nnc23)o1 [1-113]	3 (Herbicidal ratio of 40% or more and less than 70%)	3 (Herbicidal ratio of 40% or more and less than 70%)	4 (Herbicidal ratio of 70% or more and less than 90%)
COc1ccc(CSc2nnc3c(C(=O)Nc4nnc(C)o4)ccc(C(F)(F)F)n23)cc1 [1-114]	2 (Herbicidal ratio of 20% or more and less than 40%)	4 (Herbicidal ratio of 70% or more and less than 90%)	4 (Herbicidal ratio of 70% or more and less than 90%)
Cc1nnc(NC(=O)c2ccc(C(F)(F)F)n3c(SCC4CC4)nnc23)o1 [1-115]	4 (Herbicidal ratio of 70% or more and less than 90%)	4 (Herbicidal ratio of 70% or more and less than 90%)	5 (Herbicidal ratio of 90% or more (almost completely withered))
Cc1nnc(NC(=O)c2ccc(C(F)(F)F)n3c(SCC4CCCO4)nnc23)o1 (stereo not drawn) [1-116]	0 (Herbicidal ratio of 5% or less (almost no effect))	4 (Herbicidal ratio of 70% or more and less than 90%)	4 (Herbicidal ratio of 70% or more and less than 90%)
Cc1nnc(NC(=O)c2ccc(C(F)(F)F)n3c(N4CCSCC4)nnc23)o1 [1-118]	3 (Herbicidal ratio of 40% or more and less than 70%)	5 (Herbicidal ratio of 90% or more (almost completely withered))	5 (Herbicidal ratio of 90% or more (almost completely withered))
Cc1nnc(NC(=O)c2ccc(C(F)(F)F)n3c(N4CC[S+]([O-])CC4)nnc23)o1 [1-119]	2 (Herbicidal ratio of 20% or more and less than 40%)	5 (Herbicidal ratio of 90% or more (almost completely withered))	5 (Herbicidal ratio of 90% or more (almost completely withered))
Cc1nnc(NC(=O)c2ccc(C(F)(F)F)n3c(N4CCS(=O)(=O)CC4)nnc23)o1 [1-120]	5 (Herbicidal ratio of 90% or more (almost completely withered))	5 (Herbicidal ratio of 90% or more (almost completely withered))	5 (Herbicidal ratio of 90% or more (almost completely withered))
COCCN(C)c1nnc2c(C(=O)Nc3nnco3)ccc(C(F)(F)F)n12 [1-121]	5 (Herbicidal ratio of 90% or more (almost completely withered))	5 (Herbicidal ratio of 90% or more (almost completely withered))	5 (Herbicidal ratio of 90% or more (almost completely withered))
CC(C)N(C)c1nnc2c(C(=O)Nc3nnco3)ccc(C(F)(F)F)n12 [1-122]	5 (Herbicidal ratio of 90% or more (almost completely withered))	5 (Herbicidal ratio of 90% or more (almost completely withered))	5 (Herbicidal ratio of 90% or more (almost completely withered))
CN(c1nnc2c(C(=O)Nc3nnco3)ccc(C(F)(F)F)n12)C1CCCCC1 [1-123]	4 (Herbicidal ratio of 70% or more and less than 90%)	4 (Herbicidal ratio of 70% or more and less than 90%)	4 (Herbicidal ratio of 70% or more and less than 90%)
Cc1nnc(NC(=O)c2ccc(C(F)(F)F)n3c(SCC(F)(F)F)nnc23)o1 [1-124]	4 (Herbicidal ratio of 70% or more and less than 90%)	4 (Herbicidal ratio of 70% or more and less than 90%)	4 (Herbicidal ratio of 70% or more and less than 90%)
CC(=O)CSc1nnc2c(C(=O)Nc3nnc(C)o3)ccc(C(F)(F)F)n12 [1-125]	3 (Herbicidal ratio of 40% or more and less than 70%)	4 (Herbicidal ratio of 70% or more and less than 90%)	5 (Herbicidal ratio of 90% or more (almost completely withered))
Cc1nnc(NC(=O)c2ccc(C(F)(F)F)n3c(SCC4OCCO4)nnc23)o1 [1-126]	4 (Herbicidal ratio of 70% or more and less than 90%)	4 (Herbicidal ratio of 70% or more and less than 90%)	4 (Herbicidal ratio of 70% or more and less than 90%)
COc1ccc(N(C)c2nnc3c(C(=O)Nc4nnc(C)o4)ccc(C(F)(F)F)n23)cc1 [1-165]	–	4 (Herbicidal ratio of 70% or more and less than 90%)	5 (Herbicidal ratio of 90% or more (almost completely withered))
COc1ccc(CN(C)c2nnc3c(C(=O)Nc4nnc(C)o4)ccc(C(F)(F)F)n23)cc1 [1-167]	–	2 (Herbicidal ratio of 20% or more and less than 40%)	1 (Herbicidal ratio of 5% or more and less than 20%)
COC1CCC(c2nnc3c(C(=O)Nc4nnc(C)o4)ccc(C(F)(F)F)n23)CC1 (stereo not drawn) [1-169]	–	4 (Herbicidal ratio of 70% or more and less than 90%)	5 (Herbicidal ratio of 90% or more (almost completely withered))
